Assay results published in PubChem BioAssay AID1963982 (Molecular Pharmacology Branch, DTP, NCI, 2024).

Tested on: 313798-341-R-J2-PDC spheroids, viability
Assay: Anticancer human tumor 313798-341-R-J2-PDC patient-derived cervical squamous cell carcinoma cell line growth inhibition [PI3K]
Conditions: spheroids with HUVEC and MSC; for viability, T/C: stronger effect = lower value
Description: Combinatorial screen of targeted agents with the PI3K inhibitors inavolisib, alpelisib, duvelisib, and copanlisib in multi-cell type tumor spheroids
A high-throughput screen of multi-cell type tumor spheroids was designed to identify active combinations of targeted small molecules and PI3K pathway inhibitors. Complex spheroids include a stromal component modeled by human endothelial cells (HUVEC) and fibroblasts modeled by human mesenchymal stem cells (MSCs). The concentration ranges selected for each drug and investigational agent were based upon clinically achievable concentrations if the clinical Cmax of the agent was known.
Compounds. The drugs and investigational agents: inavolisib (NSC800729), alpelisib (NSC765974), duvelisib (NSC772469), copanlisib (NSC816437), ipatasertib (NSC767898), afuresertib (NSC778305), talazoparib (NSC767125), sapanisertib (NSC764658), selumetinib (NSC741078), tovorafenib (DAY101, NSC766906), vemurafenib (NSC761431), ravoxertinib (NSC781343), sotorasib (NSC818433), MRTX1133 (NSC 836407), abemaciclib (NSC 768073), palbociclib (NSC758247), venetoclax (NSC 766270), SY5609 (NSC837396), enzalutamide (NSC755605), and darolutamide (NSC825331), were obtained from the National Cancer Institute (NCI) Developmental Therapeutics Program Chemical Repository. The FDA-approved anticancer drug set is available from the NCI Developmental Therapeutics Program. […] The stock solutions were prepared in dimethyl sulfoxide (DMSO, Sigma-Aldrich, St. Louis, MO, cat. D2650) at 800-fold the tested concentration and stored at -70 degrees C prior to their use. All drugs and investigational agents were tested over a range starting from a high concentration at or near the clinical Cmax and decreasing in half-log increments. If the clinical Cmax for an agent had not been determined, the highest concentration tested was 10 microM.
Cell Culture. All cells were maintained in an incubator at 37 degrees C and 5% CO2 with 95% humidity. The PDC lines were cultured according to standard operating procedures established by the NCI PDMR (https://pdmr.cancer.gov/sops/default.htm). All PDCs were thawed and cultured in Matrigel-coated flasks prepared with a working solution of 1X Ham's F-12 nutrient mix, without supplementation (Invitrogen, Waltham, MA, cat. 11765054), 100 U/mL penicillin-streptomycin (Invitrogen, cat. 15140122), and 2.5% Matrigel (Corning Inc., Corning, NY, cat. 354248) for the first three passages. The 354836-022-R-J1-PDC, 475296-252-R-J1-PDC, and 997726-040-R-J2-PDC lines were cultured in 6A media, which includes advanced DMEM/F-12 (Thermo Fisher Scientific, cat. 12634028), 10 mM HEPES (Thermo Fisher Scientific, cat. 15630080), 1X GlutaMAX supplement (Thermo Fisher Scientific, cat. 35050061), 0.1 mg/mL primocin (InvivoGen, San Diego, CA, cat. ant-pm-2), 10% defined fetal bovine serum, heat inactivated (HyClone Laboratories Inc., Logan, UT, cat. SH30070.03HI), 50% L-WRN conditioned media (ATCC, cat. CRL-3276), 1.25 mM N-Acetyl-L-cysteine (Sigma-Aldrich, cat. A9165), 10 mM nicotinamide (Sigma-Aldrich, cat. N0636), 1X B-27 supplement (Thermo Fisher Scientific, cat. 17504044), 1X N-2 supplement (Thermo Fisher Scientific, cat. 17502048), and 10 microM Y-27632 dihydrochloride (Tocris Bioscience, Bristol, United Kingdom, cat. 1254). The 624824-186-R-J2-PDC line was cultured in 6C/Colon 1B media, which includes all 6A media components plus 50 ng/mL human EGF recombinant protein (Thermo Fisher Scientific, cat. PHG0311). […]
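Note: spheroids exposed to compounds for seven days.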
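Throughout, for viability, T/C: 100% = DMSO vehicle control viability.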

In the case of `CC(=O)c1c(C)c2cnc(Nc3ccc(N4CCNCC4)cn3)nc2n(C2CCCC2)c1=O` + CC(Nc1ncnc2nc[nH]c12)c1cc2cccc(Cl)c2c(=O)n1-c1ccccc1, the IC50 (curve of first compound, second compound 0.0316 µM) is reported as > 100 nM, the IC50 (curve of first compound, second compound 0.1 µM) is reported as > 100 nM and the IC50 (curve of first compound, second compound 0.316 µM) is reported as > 100 nM. For the same compound, the IC50 (curve of first compound, second compound 1 µM) was > 100 nM, the IC50 (curve of first compound, second compound 3.16 µM) was > 100 nM and the IC50 (curve of first compound, second compound 10 µM) was > 100 nM. For the same compound, the viability, T/C (second compound 0.0316 µM, first compound 0.000316 µM) was 100%, the viability, T/C (second compound 0.0316 µM, first compound 0.001 µM) was 112% and the viability, T/C (second compound 0.0316 µM, first compound 0.00316 µM) was 98.8%. The viability, T/C (second compound 0.0316 µM, first compound 0.01 µM) was 102%, the viability, T/C (second compound 0.0316 µM, first compound 0.0316 µM) was 101% and the viability, T/C (second compound 0.0316 µM, first compound 0.1 µM) was 106%. The viability, T/C (second compound 0.1 µM, first compound 0.000316 µM) was 104%, the viability, T/C (second compound 0.1 µM, first compound 0.001 µM) was 104% and the viability, T/C (second compound 0.1 µM, first compound 0.00316 µM) was 108%. For the same compound, the viability, T/C (second compound 0.1 µM, first compound 0.01 µM) was 109%, the viability, T/C (second compound 0.1 µM, first compound 0.0316 µM) was 103% and the viability, T/C (second compound 0.1 µM, first compound 0.1 µM) was 97.4%. It also gave a viability, T/C (second compound 0.316 µM, first compound 0.000316 µM) of 99.6%, a viability, T/C (second compound 0.316 µM, first compound 0.001 µM) of 105% and a viability, T/C (second compound 0.316 µM, first compound 0.00316 µM) of 91.1%. It also gave a viability, T/C (second compound 0.316 µM, first compound 0.01 µM) of 110%, a viability, T/C (second compound 0.316 µM, first compound 0.0316 µM) of 95.3% and a viability, T/C (second compound 0.316 µM, first compound 0.1 µM) of 104%. It also gave a viability, T/C (second compound 1 µM, first compound 0.000316 µM) of 108%, a viability, T/C (second compound 1 µM, first compound 0.001 µM) of 107% and a viability, T/C (second compound 1 µM, first compound 0.00316 µM) of 94.1%. The viability, T/C (second compound 1 µM, first compound 0.01 µM) was 106%, the viability, T/C (second compound 1 µM, first compound 0.0316 µM) was 99.2% and the viability, T/C (second compound 1 µM, first compound 0.1 µM) was 106%. The viability, T/C (second compound 3.16 µM, first compound 0.000316 µM) was 100%, the viability, T/C (second compound 3.16 µM, first compound 0.001 µM) was 108% and the viability, T/C (second compound 3.16 µM, first compound 0.00316 µM) was 104%. It also gave a viability, T/C (second compound 3.16 µM, first compound 0.01 µM) of 97%, a viability, T/C (second compound 3.16 µM, first compound 0.0316 µM) of 100% and a viability, T/C (second compound 3.16 µM, first compound 0.1 µM) of 103%. For the same compound, the viability, T/C (second compound 10 µM, first compound 0.000316 µM) was 93%, the viability, T/C (second compound 10 µM, first compound 0.001 µM) was 94.8% and the viability, T/C (second compound 10 µM, first compound 0.00316 µM) was 92.6%. The viability, T/C (second compound 10 µM, first compound 0.01 µM) was 98.2%, the viability, T/C (second compound 10 µM, first compound 0.0316 µM) was 92.3% and the viability, T/C (second compound 10 µM, first compound 0.1 µM) was 87.5%.
`CCN1CCN(Cc2ccc(Nc3ncc(F)c(-c4cc(F)c5nc(C)n(C(C)C)c5c4)n3)nc2)CC1` was tested, and the viability, T/C (compound 0.01 µM) was 99.5% [middle of 4 runs], the viability, T/C (compound 0.0316 µM) was 103% [middle of 4 runs] and the viability, T/C (compound 0.1 µM) was 102% [middle of 4 runs]. The viability, T/C (compound 0.316 µM) was 120% [middle of 4 runs], the viability, T/C (compound 1 µM) was 122% [middle of 4 runs] and the IC50 (curve of compound) was > 1000 nM.
For `Cn1ncc(Cl)c1-c1cc(C(=O)NC(CN)Cc2cccc(F)c2)sc1Cl` (stereo not given), the viability, T/C (compound 0.0316 µM) was 105% [middle of 4 runs], the viability, T/C (compound 0.1 µM) was 97.5% [middle of 4 runs] and the viability, T/C (compound 0.316 µM) was 79.1% [middle of 4 runs]. For the same compound, the viability, T/C (compound 1 µM) was 49.9% [middle of 4 runs], the viability, T/C (compound 3.16 µM) was 34.7% [middle of 4 runs] and the viability, T/C (compound 10 µM) was 34.5% [middle of 4 runs]. The IC50 (curve of compound) was 996 nM [middle of 4 runs].
